Read-outs that look alike come from different tables or passages of the source.
Columns and labels:
[1] = test system: E. cloacae 118564; format: cell-based, Enterobacter cloacae; conditions: for MICUTBLP: UTBLP alone
Experimental: (§1) The synergy of the UTBLPs with various antibiotics was assessed using checkerboard assay as previously described. Briefly, the combination of antibiotic and OMP at varying concentrations were incubated with bacterial inoculum (5 × 10^5 CFU/mL final concentration) at 37 °C for 18 h. Growth in the form of turbidity was confirmed using an EMax Plus microplate reader (Molecular Devices, Union City, CA, USA) at 590 nm. Fractional inhibitory concentration index (FICI) was used to evaluate the interaction between the antibiotic and the OMP. FICI is the sum of the FIC of the antibiotic and the FIC of the OMP. The FIC value is calculated by dividing the MIC of the agents in combination by the MIC of the agent alone. FICI ≤ 0.5 is synergistic, 0.5 < x ≤ 4 is additive, and >4 is antagonistic.

[2] = test system: MRSA ATCC 33592; format: cell-based, Staphylococcus aureus; conditions: ATCC 33592, 18 h
Experimental: (§2) The in vitro antibacterial activity of the UTBLPs was assessed against wild-type and clinically isolated bacterial strains. To obtain the MIC of the compounds, the microbroth dilution susceptibility assay was performed according to the Clinical and Laboratory Standards Institute (CLSI, Wayne, PA, USA) guidelines and as previously described. Briefly, the compounds at varying concentrations were incubated with bacterial inoculum (5 × 10^5 CFU/mL final concentration) at 37 °C for 18 h. Growth in the form of turbidity was confirmed using an EMax Plus microplate reader (Molecular Devices, San Jose, CA, USA) at 590 nm.

[3] = test system: S. aureus ATCC 29213; format: cell-based, Staphylococcus aureus; conditions: ATCC 29213, 18 h
Experimental: as §2

[4] = test system: E. coli 94474; experiment: microbe, parasite or virus in culture; format: cell-based, Escherichia coli; conditions: 94474, 18 h
Experimental: as §2

[5] = test system: E. coli 94393; experiment: microbe, parasite or virus in culture; format: cell-based, Escherichia coli; conditions: 94393, 18 h
Experimental: as §2

[6] = test system: P. aeruginosa PAO1; format: cell-based, Pseudomonas aeruginosa; conditions: PAO1, 18 h
Experimental: as §2

[7] = test system: E. faecium ATCC 27270; format: cell-based, Enterococcus faecium
Experimental: as §1

[8] = test system: E. faecalis ATCC 29212; format: cell-based, Enterococcus faecalis
Experimental: as §1

[9] = test system: P. aeruginosa PA259-96196; format: cell-based, Pseudomonas aeruginosa; conditions: for MICUTBLP: UTBLP alone
Experimental: as §1

[10] = test system: P. aeruginosa PAO1; format: cell-based, Pseudomonas aeruginosa; conditions: for MICUTBLP: UTBLP alone
Experimental: as §1

[11] = test system: P. aeruginosa PA262-101856; format: cell-based, Pseudomonas aeruginosa; conditions: for MICUTBLP: UTBLP alone
Experimental: as §1

[12] = test system: A. baumannii AB027; experiment: microbe, parasite or virus in culture; format: cell-based, Acinetobacter baumannii; conditions: AB027, 18 h
Experimental: as §2

[13] = test system: A. baumannii AB92247; experiment: microbe, parasite or virus in culture; format: cell-based, Acinetobacter baumannii; conditions: AB92247, 18 h
Experimental: as §2

[14] = test system: K. pneumoniae 113250; experiment: microbe, parasite or virus in culture; format: cell-based, Klebsiella pneumoniae; conditions: 113250, 18 h
Experimental: as §2

[15] = test system: E. cloacae 118564; experiment: microbe, parasite or virus in culture; format: cell-based, Enterobacter cloacae; conditions: 118564, 18 h
Experimental: as §2

[16] = test system: MRSA ATCC 33592; format: cell-based, Staphylococcus aureus
Experimental: as §1

[17] = test system: S. aureus ATCC 29213; format: cell-based, Staphylococcus aureus
Experimental: as §1

[18] = UTBLP in combination with novobiocin
[19] = UTBLP in combination with rifampicin
[20] = novobiocin in combination with the UTBLP
[21] = rifampicin in combination with the UTBLP
[22] = UTBLP alone, plate with chloramphenicol
[23] = UTBLP in combination with chloramphenicol
[24] = chloramphenicol in combination with the UTBLP

SMILES: CCCCCCCC(=O)N[C@@H](CCCCN(C)C)C(=O)NCCCN(CCCNC(=O)[C@H](CCCCN(C)C)NC(=O)CCCCCCC)CC(=O)N[C@@H](CCCCN(C)C)C(N)=O [UTBLP 3]
- Interpretation ([1]; UTBLP + novobiocin): Synergy (FICI ≤ 0.5 is synergistic)
- Interpretation ([1]; UTBLP + rifampicin): Synergy (FICI ≤ 0.5 is synergistic)
- MICUTBLP ([1]; plate with novobiocin): > 128 µg/mL
- MICUTBLP ([1]; plate with rifampicin): > 128 µg/mL
- MICUTBLP [MICcombo] [1, 18]: 16 µg/mL
- MICUTBLP [MICcombo] [1, 19]: 8 µg/mL
- MICantibiotic [MICcombo] [1, 20]: 16 µg/mL
- MICantibiotic [MICcombo] [1, 21]: 2 µg/mL
- MIC [2]: >128 µg/mL
- MIC [3]: >128 µg/mL
- MIC [4]: > 128 µg/mL
- MIC [5]: > 128 µg/mL
- MIC [6]: >128 µg/mL
- Interpretation ([7]; UTBLP + chloramphenicol): Additive (0.5 < x ≤ 4 is additive)
- MICUTBLP [7, 22]: > 128 µg/mL
- MICUTBLP [MICcombo] [7, 23]: 0.25 µg/mL
- MICchloramphenicol [MICcombo] [7, 24]: 8 µg/mL
- Interpretation ([8]; UTBLP + chloramphenicol): Additive (0.5 < x ≤ 4 is additive)
- MICUTBLP [8, 22]: > 128 µg/mL
- MICUTBLP [MICcombo] [8, 23]: 0.25 µg/mL
- MICchloramphenicol [MICcombo] [8, 24]: 8 µg/mL
- Interpretation ([9]; UTBLP + novobiocin): Additive (0.5 < x ≤ 4 is additive)
- Interpretation ([9]; UTBLP + rifampicin): Additive (0.5 < x ≤ 4 is additive)
- MICUTBLP ([9]; plate with novobiocin): > 128 µg/mL
- MICUTBLP ([9]; plate with rifampicin): > 128 µg/mL
- MICUTBLP [MICcombo] [9, 18]: 0.25 µg/mL
- MICUTBLP [MICcombo] [9, 19]: 16 µg/mL
- MICantibiotic [MICcombo] [9, 20]: 2048 µg/mL
- MICantibiotic [MICcombo] [9, 21]: 16 µg/mL
- Interpretation ([10]; UTBLP + chloramphenicol): Additive (0.5 < x ≤ 4 is additive)
- Interpretation ([10]; UTBLP + niclosamide): Additive (0.5 < x ≤ 4 is additive)
- Interpretation ([10]; UTBLP + novobiocin): Additive (0.5 < x ≤ 4 is additive)
- Interpretation ([10]; UTBLP + rifampicin): Additive (0.5 < x ≤ 4 is additive)
- MICUTBLP ([10]; plate with chloramphenicol): > 128 µg/mL
- MICUTBLP ([10]; plate with niclosamide): > 128 µg/mL
- MICUTBLP ([10]; plate with novobiocin): > 128 µg/mL
- MICUTBLP ([10]; plate with rifampicin): > 128 µg/mL
- MICUTBLP [MICcombo] [10, 23]: 8 µg/mL
- MICUTBLP [MICcombo] ([10]; UTBLP in combination with niclosamide): 0.25 µg/mL
- MICUTBLP [MICcombo] [10, 18]: 16 µg/mL
- MICUTBLP [MICcombo] [10, 19]: 0.25 µg/mL
- MICantibiotic [MICcombo] [10, 24]: 8 µg/mL
- MICantibiotic [MICcombo] ([10]; niclosamide in combination with the UTBLP): 1024 µg/mL
- MICantibiotic [MICcombo] [10, 20]: 512 µg/mL
- MICantibiotic [MICcombo] [10, 21]: 16 µg/mL
- Interpretation ([11]; UTBLP + novobiocin): Additive (0.5 < x ≤ 4 is additive)
- Interpretation ([11]; UTBLP + rifampicin): Additive (0.5 < x ≤ 4 is additive)
- MICUTBLP ([11]; plate with novobiocin): > 128 µg/mL
- MICUTBLP ([11]; plate with rifampicin): > 128 µg/mL
- MICUTBLP [MICcombo] [11, 18]: 8 µg/mL
- MICUTBLP [MICcombo] [11, 19]: 0.25 µg/mL
- MICantibiotic [MICcombo] [11, 20]: 1024 µg/mL
- MICantibiotic [MICcombo] [11, 21]: 512 µg/mL
- MIC [12]: > 128 µg/mL
- MIC [13]: > 128 µg/mL
- MIC [14]: > 128 µg/mL
- MIC [15]: > 128 µg/mL
- Interpretation ([16]; UTBLP + chloramphenicol): Additive (0.5 < x ≤ 4 is additive)
- MICUTBLP [16, 22]: > 128 µg/mL
- MICUTBLP [MICcombo] [16, 23]: 0.25 µg/mL
- MICchloramphenicol [MICcombo] [16, 24]: 64 µg/mL
- MICUTBLP [17, 22]: > 128 µg/mL
- MICUTBLP [MICcombo] [17, 23]: 0.25 µg/mL
- MICchloramphenicol [MICcombo] [17, 24]: 16 µg/mL

Source: article PMC8963254, “Effects of Lysine N-ζ-Methylation in Ultrashort Tetrabasic Lipopeptides (UTBLPs) on the Potentiation of Rifampicin, Novobiocin, and Niclosamide in Gram-Negative Bacteria” (Antibiotics, 2022)
